Assay results: US11247965B2 (VenatoRx Pharmaceuticals, Inc., priority 2017, dated 2022)

Assays:
[1] = test system: HBV replication in HepAD38 cells; test: Anti-HBV activity in HepAD38 cells, extracellular HBV DNA by QPCR; format: cell-based, HBV (genotype D, serotype ayw); details: Hepatitis B virus, HePAD38, 168 h, read-out: Anti-HBV EC50, HepAD38 cells, extracellular HBV DNA by QPCR, 7 days of incubation
Outline: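 HepAD38 cells (HepG2 with tet-repressible HBV genotype D genome) seeded overnight, tetracycline removed, then treated 7 days with compounds (half-log dilutions, 30 μM–10 nM; 1:200 from DMSO). Supernatant HBV DNA quantified by QPCR against standard curve; % inhibition vs vehicle, EC50 by 4-parameter fit.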

[2] = In vitro cytotoxicity, MTT cell viability assay in HepG2 cells; format: cell-based; details: human, Cytotoxicity CC50
Outline: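 Read-out: MTT formazan absorbance at 492 nm, expressed as % of vehicle signal; CC50 by 4-parameter non-linear regression. Parental HepG2, 20,000 cells/well, treated 7 days with compound from 30 μM down to 1.0 nM.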

SMILES	EC50 [1]	CC50 at 7 days [2]
CC(C)n1cc(NC(=O)c2ccc(F)c(C(F)(F)C(=O)N3CCC(O)CC3)c2)cn1 [Example 80, 3-(1,1-difluoro-2-(4-hydroxypiperidin-1-yl)-2-oxoethyl)-4-fluoro-N-(1-isopropyl-1H-pyrazol-4-yl)benzamide]	> 30 µM	> 30 µM
Cc1cc(NC(=O)c2ccc(F)c(C(F)(F)C(=O)NC(C)(C)CO)c2)ccc1F [Example 28, 3-(1,1-difluoro-2-((1-hydroxy-2-methylpropan-2-yl)amino)-2-oxoethyl)-4-fluoro-N-(4-fluoro-3-methylphenyl)benzamide]	5 to 30 µM	> 30 µM
Cc1cc(NC(=O)c2cc(Br)c(C(F)(F)C(=O)NC(C)(C)C)s2)ccc1F [Example 158, 4-bromo-5-(2-(tert-butylamino)-1,1-difluoro-2-oxoethyl)-N-(4-fluoro-3-methylphenyl)thiophene-2-carboxamide]	5 to 30 µM	5 to 30 µM
CCC(C)NC(=O)C(F)(F)c1cc(C(=O)Nc2ccc(F)c(F)c2)ccc1F (centres unmarked) [Example 1, 3-(2-(sec-butylamino)-1,1-difluoro-2-oxoethyl)-N-(3,4-difluorophenyl)-4-fluorobenzamide]	< 5 µM	5 to 30 µM
Cc1cc(NC(=O)c2ccc(Cl)c(C(F)(F)C(=O)NC(C)C)c2)ccc1F [Example 23, 4-chloro-3-(1,1-difluoro-2-(isopropylamino)-2-oxoethyl)-N-(4-fluoro-3-methylphenyl)benzamide]	5 to 30 µM	5 to 30 µM
CNS(=O)(=O)N1C[C@@H](C)N(C(=O)C(F)(F)c2cc(C(=O)Nc3ccc(F)c(C)c3)ccc2F)[C@@H](C)C1 [Example 291, 3-(2-((2S,6R)-2,6-dimethyl-4-(N-methylsulfamoyl)piperazin-1-yl)-1,1-difluoro-2-oxoethyl)-4-fluoro-N-(4-fluoro-3-methylphenyl)benzamide]	< 5 µM	5 to 30 µM
Cc1cc(NC(=O)c2ccc(F)c(C(F)(F)C(=O)N3[C@H](C)CNC[C@@H]3C)c2)ccc1F [Example 214, 3-(2-((2S,6R)-2,6-dimethylpiperazin-1-yl)-1,1-difluoro-2-oxoethyl)-4-fluoro-N-(4-fluoro-3-methylphenyl)benzamide]	< 5 µM	5 to 30 µM
Cc1cc(NC(=O)c2c(C)c(C(F)(F)C(=O)NC(C)(C)C)n(C)c2C)ccc1F [Example 107, 5-(2-(tert-butylamino)-1,1-difluoro-2-oxoethyl)-N-(4-fluoro-3-methylphenyl)-1,2,4-trimethyl-1H-pyrrole-3-carboxamide]	< 5 µM	> 30 µM
Cc1cc(NC(=O)c2ccc(C(F)(F)C(=O)NC(C)(C)C)s2)ccc1F [Example 81, 5-(2-(tert-butylamino)-1,1-difluoro-2-oxoethyl)-N-(4-fluoro-3-methylphenyl)thiophene-2-carboxamide]	5 to 30 µM	> 30 µM
N#Cc1cc(NC(=O)c2ccc(F)c(C(F)(F)C(=O)N3CCC(O)CC3)c2)ccc1F [Example 88, N-(3-cyano-4-fluorophenyl)-3-(1,1-difluoro-2-(4-hydroxypiperidin-1-yl)-2-oxoethyl)-4-fluorobenzamide]	< 5 µM	> 30 µM
Cc1cc(NC(=O)c2ccc(F)c(C(F)(F)C(=O)NC34CCC(N)(CC3)C4)c2)ccc1F [Example 253, 3-(2-((4-aminobicyclo[2.2.1]heptan-1-yl)amino)-1,1-difluoro-2-oxoethyl)-4-fluoro-N-(4-fluoro-3-methylphenyl)benzamide]	< 5 µM	> 30 µM
Cc1cc(NC(=O)c2ccc(F)c(C(F)(F)C(=O)N3[C@@H]4CCC[C@H]3C[C@H](N)C4)c2)ccc1F [Example 337, 3-(2-((1R,3s,5S)-3-amino-9-azabicyclo[3.3.1]nonan-9-yl)-1,1-difluoro-2-oxoethyl)-4-fluoro-N-(4-fluoro-3-methylphenyl)benzamide]	< 5 µM	5 to 30 µM
Cc1cc(NC(=O)c2ccc(F)c(C(F)(F)C(=O)N3[C@@H]4CC[C@H]3C[C@H](O)C4)c2)cc(F)n1 [Example 223, 3-(1,1-difluoro-2-((1R,3s,5S)-3-hydroxy-8-azabicyclo[3.2.1]octan-8-yl)-2-oxoethyl)-4-fluoro-N-(2-fluoro-6-methylpyridin-4-yl)benzamide]	< 5 µM	< 5 µM
Cc1cc(NC(=O)c2ccc(F)c(C(F)(F)C(=O)N3[C@H](C)CN(S(=O)(=O)C4CC4)C[C@@H]3C)c2)ccc1F [Example 292, 3-(2-((2S,6R)-4-(cyclopropylsulfonyl)-2,6-dimethylpiperazin-1-yl)-1,1-difluoro-2-oxoethyl)-4-fluoro-N-(4-fluoro-3-methylphenyl)benzamide]	< 5 µM	5 to 30 µM
Cc1cc(NC(=O)c2ccc(F)c(C(F)(F)C(=O)N3CCC(O)(C(N)=O)CC3)c2)ccc1F [Example 212, 1-(2,2-difluoro-2-(2-fluoro-5-((4-fluoro-3-methylphenyl)carbamoyl)phenyl)acetyl)-4-hydroxypiperidine-4-carboxamide]	< 5 µM	5 to 30 µM
CCn1cc(C(=O)Nc2ccc(F)c(C)c2)cc1C(F)(F)C(=O)NC(C)(C)C [Example 134, 5-(2-(tert-butylamino)-1,1-difluoro-2-oxoethyl)-1-ethyl-N-(4-fluoro-3-methylphenyl)-1H-pyrrole-3-carboxamide]	< 5 µM	> 30 µM
CN(C(=O)c1ccc(Cl)c(C(F)(F)C(=O)N2CCC(O)CC2)c1)c1ccc(Cl)cc1 [Example 40, 4-chloro-N-(4-chlorophenyl)-3-(1,1-difluoro-2-(4-hydroxypiperidin-1-yl)-2-oxoethyl)-N-methylbenzamide]	> 30 µM	> 30 µM
Cc1cc(NC(=O)c2ccc(Cl)c(C(F)(F)C(=O)N3[C@@H]4CC[C@H]3C[C@H](O)C4)c2)ccc1F [Example 221, 4-chloro-3-(1,1-difluoro-2-((1R,3s,5S)-3-hydroxy-8-azabicyclo[3.2.1]octan-8-yl)-2-oxoethyl)-N-(4-fluoro-3-methylphenyl)benzamide]	< 5 µM	5 to 30 µM
Cc1cc(NC(=O)c2ccc(F)c(C(F)(F)C(=O)N3[C@@H]4CC[C@H]3CC(O)(CC#N)C4)c2)ccc1F (stereo partly drawn) [Example 240, 3-(2-((1R,5S)-3-(cyanomethyl)-3-hydroxy-8-azabicyclo[3.2.1]octan-8-yl)-1,1-difluoro-2-oxoethyl)-4-fluoro-N-(4-fluoro-3-methylphenyl)benzamide]	< 5 µM	< 5 µM
Cc1cc(NC(=O)c2cc(C(F)(F)C(=O)NC(C)(C)C)n(C)n2)ccc1F [Example 165, 5-(2-(tert-butylamino)-1,1-difluoro-2-oxoethyl)-N-(4-fluoro-3-methylphenyl)-1-methyl-1H-pyrazole-3-carboxamide]	5 to 30 µM	> 30 µM
CCCN(CCO)C(=O)C(F)(F)c1cc(C(=O)Nc2ccc(F)c(F)c2)ccc1F [Example 52, 3-(1,1-difluoro-2-((2-hydroxyethyl)(propyl)amino)-2-oxoethyl)-N-(3,4-difluorophenyl)-4-fluorobenzamide]	5 to 30 µM	> 30 µM
O=C(Nc1ccc(Cl)cc1F)c1ccc(Cl)c(C(F)(F)C(=O)N2CCC(O)CC2)c1 [Example 37, 4-chloro-N-(4-chloro-2-fluorophenyl)-3-(1,1-difluoro-2-(4-hydroxypiperidin-1-yl)-2-oxoethyl)benzamide]	> 30 µM	> 30 µM
O=C(Nc1ccc(F)c(F)c1)c1ccc(F)c(C(F)(F)C(=O)N2CCC(O)CC2)c1 [Example 2, 3-(1,1-difluoro-2-(4-hydroxypiperidin-1-yl)-2-oxoethyl)-N-(3,4-difluorophenyl)-4-fluorobenzamide]	< 5 µM	5 to 30 µM
Cc1cc(NC(=O)c2ccc(F)c(C(F)(F)C(=O)N3[C@@H]4CCC[C@H]3[C@H](O)C4)c2)ccc1F [Example 215, 3-(1,1-difluoro-2-((1R,5S,6R)-6-hydroxy-8-azabicyclo[3.2.1]octan-8-yl)-2-oxoethyl)-4-fluoro-N-(4-fluoro-3-methylphenyl)benzamide]	< 5 µM	5 to 30 µM
O=C(Nc1ccc(F)c(F)c1)c1ccc(F)c(C(F)(F)C(=O)N2CCCCC2)c1 [Example 11, 3-(1,1-difluoro-2-oxo-2-(piperidin-1-yl)ethyl)-N-(3,4-difluorophenyl)-4-fluorobenzamide]	5 to 30 µM	5 to 30 µM
O=C(Nc1ccc(F)cc1)c1ccc(Cl)c(C(F)(F)C(=O)N2CCC(O)CC2)c1 [Example 36, 4-chloro-3-(1,1-difluoro-2-(4-hydroxypiperidin-1-yl)-2-oxoethyl)-N-(4-fluorophenyl)benzamide]	< 5 µM	> 30 µM
Cc1cc(NC(=O)c2ccc(F)c(C(F)(F)C(=O)N3C4CC[C@@H]3C[C@@H](NS(C)(=O)=O)C4)c2)ccc1F [Example 261, 3-(1,1-difluoro-2-((1R,3s,5S)-3-(methylsulfonamido)-8-azabicyclo[3.2.1]octan-8-yl)-2-oxoethyl)-4-fluoro-N-(4-fluoro-3-methylphenyl)benzamide]	< 5 µM	< 5 µM
Cc1cc(NC(=O)c2ccc(F)c(C(F)(F)C(=O)N3CCC(O)CC3)c2)cc(F)c1F [Example 159, 3-(1,1-difluoro-2-(4-hydroxypiperidin-1-yl)-2-oxoethyl)-N-(3,4-difluoro-5-methylphenyl)-4-fluorobenzamide]	< 5 µM	5 to 30 µM
